Data set [1] in a line: Heating agent in water solution in sealed pressure vessels at SAGD conditions (gas generation by decomposition). It counts as physicochemical. Here is the method:
For illustrative purposes, an experiment conducted to simulate the impact of a recovery process on selected preconditioning agents under reservoir conditions shall be described. […] In one such experiment, the preconditioning agent was citric acid which was dissolved in water to create the water solution.

For data set [2] the following is noted: cited from earlier work.
The mark [3] stands for this setting: 5 grams agent, 205° C., approx. 73 hours.
Setting [4] is: 5.0 g agent and 50 milliliters water, three days at 205° C., SAGD conditions.

≈ marks a conversion by molar mass, not a printed value.

In the case of `O=C(O)CC(O)(CC(=O)O)C(=O)O` [Citric Acid, citric acid], in data set [1] (setting [3]), the “methane in headspace gas” value was “approximately 1500 ppm” and the “propane in headspace gas” value is given as roughly 300 ppm. Moreover, the “CO2 yielded in headspace” value in data set [1] (approximately 5 grams agent (50 milliliters of 10% solution), 205° C., approx. 73 hours, approx. 990 psi) is on record as “approximately 1.16 liters”. In addition, the “carbon dioxide yield scaled” value in data set [1] (from 1 cubic meter of 10% solution) is given as 23,200 liters.
On to `CCCC(C)=O` [MPK, methyl propyl ketone], for which the “Solubility in Water at 20° C.” value in data set [2] is 31 mg/mL (≈ 360 mM).
In the case of `O=C(O)C(=O)O` [oxalic acid dihydrate], in data set [1] (setting [4]), the “carbon dioxide produced on conversion” value was 1.25 moles CO2/mole of oxalic acid dehydrate and the “methane produced on conversion” value was 0.56 moles/mole of oxalic acid dihydrate.

(Values after patent publication US8235110B2, “Preconditioning an oilfield reservoir” (Gushor Inc., priority 2006, dated 2012).)
